# Read-outs that look alike come from different tables or passages of the source.
# Columns and labels:
# platelet surface PDI = platelet surface PDI (Homo sapiens, UniProt P07237); test: Cell surface PDI reductase activity on intact human platelets (Di-E-GSSG assay); conditions: read-out: Surface PDI IC50; intact human platelets, Di-E-GSSG, 5 μM DTT
# Experimental: (§3) In this assay, a nonfluorescent substrate, dieosin glutathione disulfide (Di-E-GSSG), was reduced into a fluorescent product eosin-glutathione (E-GSH) by platelet surface PDI in the presence of 5 μM dithiothreitol (DTT).
# [1] = tested on: multiple myeloma RPMI8226; test: Cell viability, resazurin assay, RPMI8226; conditions: for IC50: Homo sapiens; for S.I. (EAhy926/RPMI8226), selectivity index: 24 h IC50 ratio
# Experimental: (§4) Cells were maintained in a humidified incubator at 37 °C in 5% CO2, and cell viability was determined with the resazurin assay (Cayman Chemical, USA) after the incubation with compounds for indicated concentrations and times or DMSO as control.[72]
# [2] = biological target: purified human recombinant PDI (rPDI) (Homo sapiens, UniProt P07237); test: Recombinant PDI reductase activity (Di-E-GSSG assay); conditions: read-out: rPDI IC50; human recombinant PDI, Di-E-GSSG, 5 μM DTT
# Experimental: as §3
# breast cancer MDA-MB-231 = test: Cell viability, resazurin assay, MDA-MB-231; conditions: for IC50: Homo sapiens, MDA-MB-231, 24 h, read-out: MDA-MB-231 IC50
# Experimental: as §4
# washed human platelets [3] = test: U46619-induced platelet aggregation; type: cell-based; conditions: for IC50: Platelet, washed human platelets, U46619 (1 μM)
# Experimental: (§1) The antiplatelet effects of the JUG derivatives were evaluated by measuring human platelet aggregation, which can be regulated by cell surface PDI. Platelet aggregation was induced with platelet activators U46619 (a mimetic of thromboxane A2) and collagen (binding to GPVI).
# (§2) Washed human platelets were prepared from acid citrate dextrose-anticoagulated blood of healthy human volunteers as described previously.[73] The study was approved by the Institutional Review Board of Kaohsiung Medical University, and informed consent was obtained from every volunteer. Platelet aggregation was measured by using a turbidimetric aggregometer (Chrono-Log Co., USA) under stirring conditions (1200 rpm) at 37 °C. The extent of platelet aggregation was measured as the maximal increase of light transmission after the addition of the stimulators U46619 and collagen.[73] In the TCIPA assay, platelet aggregation was induced by A549 (1 × 10^4 cells/mL), MDA-MB-231 (1 × 10^2 cells/mL), or RPMI8226 (1 × 10^5 cells/mL) cancer cells in the presence of 0.375% plasma.[74]
# glioma U87 = test: Cell viability, resazurin assay, U87; conditions: Homo sapiens, 24 h, read-out: U87 IC50
# Experimental: as §4
# [4] = Parallel artificial membrane permeability assay (PAMPA); conditions: 50 μM, 3 h
# Experimental: 1. Parallel artificial membrane permeability assay (PAMPA). […]
# evolution instruments from pION Inc. In the PAMPA assay, a set of sandwich plates consists of a 96-well microtiter donor plate at the bottom and a 96-well filter acceptor plate on the top from […]
# The stock solutions of samples were prepared at 10 mM concentrations in DMSO and stored at 0 ℃ before use. Before being added to a 96-well filter plate, the stock solution was diluted first with buffer to achieve a final sample concentration of 50 μM and to reduce the DMSO concentration below 1% (v/v). Each well of the 96-well donor plate was filled with a 200 μL diluted sample solution (50 μM), and the 96-well filter acceptor plate was then wetted with a 5 μL 2% w/v dioleyoylphosphatidylcholine (DOPC) in n-dodecane and subsequently placed on the donor wells.
# Immediately, the acceptor wells were filled with 200 μL of buffer solution and the PAMPA plate sandwich was sealed and incubated at 25 ℃ for 3 h. After reaching the permeation time, the PAMPA plate sandwich was separated and transferred to 96-well UV plates respectively. The amounts of drugs in both the donor and acceptor compartments were measured by comparing the experimental spectra with the UV spectrum (220∼400 nm) obtained from reference standards.
# washed human platelets [5] = test: Collagen-induced platelet aggregation; type: cell-based; conditions: for IC50: Platelet, washed human platelets, collagen (5 μg/mL)
# Experimental: as §1, §2
# lung cancer A549 = test: Cell viability, resazurin assay, A549; conditions: for IC50: Homo sapiens, A549, 24 h, read-out: A549 IC50
# Experimental: as §4
# [6] = tested on: human vascular endothelial EA.hy926 cells; test: Cell viability, resazurin assay, EA.hy926; conditions: EA.hy 926, 24 h, read-out: EAhy926 IC50
# Experimental: as §4
# [7] = RPMI-8226, 24 h, read-out: RPMI8226 IC50
# [8] = 25 ℃, verapamil = 100%, ranitidine = 0%
# [9] = concentrations up to 40 μM, unpublished data
# Sequence of platelet surface PDI (P07237 18-508): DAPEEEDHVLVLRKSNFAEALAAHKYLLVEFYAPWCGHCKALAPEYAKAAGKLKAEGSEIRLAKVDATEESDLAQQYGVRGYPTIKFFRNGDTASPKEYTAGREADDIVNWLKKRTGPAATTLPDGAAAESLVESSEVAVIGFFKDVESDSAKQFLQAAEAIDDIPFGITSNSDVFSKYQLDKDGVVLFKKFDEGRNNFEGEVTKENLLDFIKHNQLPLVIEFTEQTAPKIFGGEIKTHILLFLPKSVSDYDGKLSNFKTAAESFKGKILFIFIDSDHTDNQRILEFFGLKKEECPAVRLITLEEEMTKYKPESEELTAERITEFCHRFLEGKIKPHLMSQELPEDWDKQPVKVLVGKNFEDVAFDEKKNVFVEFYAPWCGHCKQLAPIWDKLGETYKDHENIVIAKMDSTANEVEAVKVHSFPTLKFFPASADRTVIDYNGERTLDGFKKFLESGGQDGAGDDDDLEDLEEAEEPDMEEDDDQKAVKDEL
# Sequence of purified human recombinant PDI (rPDI) (P07237 18-508): as above
IC50 (platelet surface PDI) [µM],"IC50 [1, 7] [µM]",IC50 [2] [µM],IC50 (breast cancer MDA-MB-231) [µM],IC50 (washed human platelets [3]) [µM],IC50 (glioma U87) [µM],"Permeability (%) [4, 8] [%]",IC50 (washed human platelets [5]) [µM],IC50 (lung cancer A549) [µM],"IC50 ([1]; RPMI-8226, 72 h, read-out: RPMI8226 IC50, 72 h) [µM]",Structure (SMILES),"S.I. (EAhy926/RPMI8226), selectivity index [1]",IC50 [6] [µM],Permeability (%) [4] [%],effect on cell viability of RPMI8226 ([1]; unpublished data),effect on cell viability of MDA-MB-231 (breast cancer MDA-MB-231; unpublished data),effect on U46619-induced platelet aggregation (washed human platelets [3]; [9]),effect on collagen-induced platelet aggregation (washed human platelets [5]; [9]),effect on cell viability of A549 (lung cancer A549; unpublished data)
1.17 ± 0.38,> 20,3.7 ± 1.22,> 100,> 50,> 20,-0.96,> 50,> 100,–,"O=C1C=C(SC[C@H]2OC(O)[C@H](O)[C@@H](O)[C@@H]2O)C(=O)c2c(O)cccc21 (mixture of isomers) [Compound 19, 2-(6-Deoxy-6-thio-D-glucose)-8-hydroxynaphthalene-1,4-dione]",–,–,–,–,–,–,–,–
0.79 ± 0.26,> 20,1.34 ± 0.12,> 100,2.66 ± 0.42,> 20,28.4,0.71 ± 0.03,17.3 ± 0.9,–,"COc1ccccc1SC1=CC(=O)c2cccc(O)c2C1=O [Compound 10, 2-((2-Methoxyphenyl)thio)-8-hydroxynaphthalene-1,4-dione]",–,–,–,–,–,–,–,–
1.28 ± 0.29,2.26 ± 0.07,14 ± 1.67,38.9 ± 4.89,2.43 ± 0.3,> 20,2.7,1.58 ± 0.88,12.4 ± 1.56,–,"COc1ccc(SC2=CC(=O)c3cccc(O)c3C2=O)cc1OC [Compound 11, 2-((3,4-Dimethoxyphenyl)thio)-8-hydroxynaphthalene-1,4-dione]",>8.8,> 20,–,–,–,–,–,–
> 20,> 20,–,> 100,> 20,> 20,30.2,16 ± 2.11,> 100,–,"CN(C)C1=CC(=O)c2c(O)cccc2C1=O [Compound 24, 3-(Dimethylamino)-8-hydroxynaphthalene-1,4-dione]",–,–,–,–,–,–,–,–
> 20,> 20,–,> 100,13.7 ± 0.89,> 20,1.08,> 20,> 20,–,"COc1ccc(SC2=C(O)C(=O)c3c(O)cccc3C2=O)cc1 [Compound 27, 2,8-Dihydroxy-3-((4-methoxyphenyl)thio)naphthalene-1,4-dione]",–,> 20,–,–,–,–,–,–
–,–,–,–,–,–,0,–,–,–,"CNC(=C[N+](=O)[O-])NCCSCc1ccc(CN(C)C)o1 [Ranitidine, reference compound]",–,–,–,–,–,–,–,–

# More lines, now with the values behind:
Structure (SMILES),IC50 (platelet surface PDI) [µM],"IC50 [1, 7] [µM]",IC50 [2] [µM],IC50 (breast cancer MDA-MB-231) [µM],IC50 (washed human platelets [3]) [µM],IC50 (glioma U87) [µM],"Permeability (%) [4, 8] [%]",IC50 (washed human platelets [5]) [µM],IC50 (lung cancer A549) [µM],"IC50 ([1]; RPMI-8226, 72 h, read-out: RPMI8226 IC50, 72 h) [µM]","S.I. (EAhy926/RPMI8226), selectivity index [1]",IC50 [6] [µM],Permeability (%) [4] [%],effect on cell viability of RPMI8226 ([1]; unpublished data),effect on cell viability of MDA-MB-231 (breast cancer MDA-MB-231; unpublished data),effect on U46619-induced platelet aggregation (washed human platelets [3]; [9]),effect on collagen-induced platelet aggregation (washed human platelets [5]; [9]),effect on cell viability of A549 (lung cancer A549; unpublished data)
"COc1ccc(N2C(=O)/C(=C\c3ccc([N+](=O)[O-])s3)SC2=S)cc1 [CCF642, reference compound]",–,8.77 ± 0.29,–,6.42 ± 0.29,–,> 20,–,–,13 ± 0.29,–,0.64,5.57 ± 0.25,–,–,–,–,–,–
"COc1ccc(SC2=CC(=O)c3cccc(O)c3C2=O)cc1 [Compound 8, 2-((4-Methoxyphenyl)thio)-8-hydroxynaphthalene-1,4-dione]",1.37 ± 0.23,4.7 ± 0.08,1.44 ± 0.08,6.63 ± 0.93,1.52 ± 0.08,16.8 ± 0.62,80.43,0.29 ± 0.06,14.9 ± 0.43,–,3.0,13.9 ± 1.17,–,–,–,–,–,–
"COc1cccc(SC2=CC(=O)c3cccc(O)c3C2=O)c1 [Compound 9, 2-((3-Methoxyphenyl)thio)-8-hydroxynaphthalene-1,4-dione]",0.84 ± 0.06,0.77 ± 0.05,0.71 ± 0.04,5.57 ± 0.7,1.6 ± 0.16,8.06 ± 0.48,38.9,0.38 ± 0.13,13.9 ± 0.53,–,8.9,6.89 ± 0.12,–,–,–,–,–,–
"Cc1ccc(SC2=CC(=O)c3cccc(O)c3C2=O)cc1 [Compound 12, 2-(p-Tolylthio)-8-hydroxynaphthalene-1,4-dione]",1.84 ± 0.05,3.83 ± 0.28,3.45 ± 0.18,25.2 ± 2.58,1.82 ± 0.17,> 20,–,0.76 ± 0.02,> 100,–,>5.2,> 20,0.1,–,–,–,–,–
"CC(C)(C)c1ccc(SC2=CC(=O)c3cccc(O)c3C2=O)cc1 [Compound 13, 2-((4-(tert-Butyl)phenyl)thio)-8-hydroxynaphthalene-1,4-dione]",1.5 ± 0.05,3.5 ± 0.26,1.29 ± 0.3,15.1 ± 1.48,1.85 ± 0.17,> 20,8.5,0.64 ± 0.05,> 100,–,>5.7,> 20,–,–,–,–,–,–
"O=C1C=C(Sc2ccc(O)cc2)C(=O)c2c(O)cccc21 [Compound 14, 2-((4-Hydroxyphenyl)thio)-8-hydroxynaphthalene-1,4-dione]",0.77 ± 0.2,0.58 ± 0.03,1.5 ± 0.25,6.92 ± 1.1,1.3 ± 0.35,6.4 ± 0.12,–,0.75 ± 0.14,16.1 ± 0.27,–,9.8,5.69 ± 0.16,–,–,–,–,–,–
"CCCCCSC1=CC(=O)c2cccc(O)c2C1=O [Compound 16, 2-(Pentylthio)-8-hydroxynaphthalene-1,4-dione]",0.88 ± 0.12,1.88 ± 0.08,–,10.7 ± 1.26,7.13 ± 1.82,> 20,91.9,2.57 ± 0.5,> 50,–,>10.6,> 20,–,–,–,–,–,–
"CN(C)C1=CC(=O)c2cccc(O)c2C1=O [Compound 23, 2-(Dimethylamino)-8-hydroxynaphthalene-1,4-dione]",> 20,> 20,–,> 100,> 20,> 20,16.7,> 20,> 100,–,–,–,–,–,–,–,–,–
"O=C1C=C(O)C(=O)c2c(O)cccc21 [Compound 25, 2,8-Dihydroxynaphthalene-1,4-dione]",> 20,> 20,–,> 100,> 20,> 20,5.21,> 20,> 100,–,–,–,–,–,–,–,–,–
"O=C1C(O)=CC(=O)c2c(O)cccc21 [Compound 26, 3,8-Dihydroxynaphthalene-1,4-dione]",> 20,> 20,–,> 100,> 20,> 20,5.17,> 20,> 100,–,–,–,–,–,–,–,–,–
"COc1ccc(SC2=C(O)C(=O)c3cccc(O)c3C2=O)cc1 [Compound 28, 3,8-Dihydroxy-2-((4-methoxyphenyl)thio)naphthalene-1,4-dione]",> 20,> 20,–,> 100,> 20,> 20,9.28,> 20,> 100,–,–,–,–,–,–,–,–,–
"CC(C)C[C@H](NC(=O)[C@H](Cc1ccccc1)NC(=O)c1cnccn1)B(O)O [bortezomib, reference compound]",–,5.24 ± 0.79,–,0.46 ± 0.01,–,7.86 ± 1.23,–,–,0.69 ± 0.2,0.08,0.017,0.09 ± 0.01,–,–,–,–,–,–
"CC(C)(C)CN(C(=O)CCl)C1CCS(=O)(=O)C1 (centres unmarked) [sulfopin, reference compound]",–,–,–,–,–,–,–,–,–,–,–,–,–,no significant impacts,no significant impacts,does not show any effect,does not show any effect,no significant impacts

# Reference: paper PMC10945480 (Journal of Medicinal Chemistry, 2024)
